Experimental data taken from ChEMBL document CHEMBL1137120, “Synthesis and biological evaluation of flavonoids as vasorelaxant agents” (2004).

species: Rattus norvegicus; experiment: Tested for vasorelaxant activity in rat thoracic aorta rings against PE-induced contractions; assay type: functional

Row | SMILES | Maximal relaxation [%]
1 | O=c1cc(-c2ccc3c(c2)OCO3)oc2cc(O)cc(O)c12 | 91.3
2 | Cc1ccc(-c2cc(=O)c3c(O)cc(O)cc3o2)cc1 | 77.2
3 | Cc1c(O)c(C)c2c(c1O)C(=O)C(O)C(c1ccc(O)cc1)O2 (centres undefined) | 64.4
4 | O=c1cc(-c2cccc(Br)c2)oc2cc(O)cc(O)c12 | 95
5 | O=c1cc(-c2ccc(Cl)cc2)oc2cc(O)cc(O)c12 | 92.7
6 | COc1cccc(-c2cc(=O)c3c(O)cc(O)cc3o2)c1 | 80.8
7 | O=c1c(O[C@@H]2OC[C@@H](O)[C@H](O)[C@@H]2O)c(-c2ccc(O)c(O)c2)oc2cc(O)cc(O)c12 | 24.7
8 | O=c1c(O[C@@H]2OC[C@@H](O)[C@@H](O)[C@H]2O)c(-c2ccc(O)c(O)c2)oc2cc(O)cc(O)c12 | 35.1
9 | COCOc1c(-c2ccc(O)c(O)c2)oc2cc(O)cc(O)c2c1=O | 71.6
10 | O=c1cc(-c2ccccc2)oc2cc(O[C@@H]3O[C@H](CO)[C@@H](O)C(O)[C@H]3O)c(O)c(O)c12 (single isomer, unassigned) | 36.2
11 | O=c1c(O[C@@H]2O[C@H](CO)C(O)C(O)[C@H]2O)c(-c2ccc(O)c(O)c2)oc2cc(O)cc(O)c12 (single isomer, unassigned) [ISOQUERCETIN] | 34
12 | C[C@@H]1O[C@@H](OC[C@H]2O[C@@H](Oc3c(-c4ccc(O)c(O)c4)oc4cc(O)cc(O)c4c3=O)C(O)[C@@H](O)[C@@H]2O)[C@H](O)[C@H](O)[C@H]1O (single isomer, unassigned) [RUTIN] | 24.7
13 | O=c1cc(-c2ccc(O)c(O)c2)oc2cc(O)cc(O)c12 [LUTEOLIN] | 70.2
14 | O=c1c(O)c(-c2ccc(O)c(O)c2)oc2cc(O)cc(O)c12 [QUERCETIN] | 45.9
